One data set deals with human SCN9A pre-mRNA. Kind of data set: SCN9A nested PCR for exon skipping in PC3 cells. It is filed as cell-based. Here is the method: Given that PC3 cells are known to abundantly express the human SCN9A pre-mRNA [Br. J. Pharmacol. vol 156, 420-431 (2009)], “SCN-ASO 7” was evaluated by SCN9A nested PCR for its ability to induce the skipping of exon 4 in the human SCN9A pre-mRNA in PC3 cells as follows. [Cell Culture & ASO Treatment] PC3 cells (Cat. No. CRL-1435, ATCC) were maintained in Ham's F-12K medium supplemented with 10% FBS, 1% streptomycin/penicillin, 1% L-glutamine, and 1% sodium pyruvate under 5% CO2 atmosphere at 37° C. PC3 cells grown in 60 mm culture dish containing 5 mL medium were treated with “SCN-ASO 7” at 0 (negative control), 10, 100 or 1,000 zM. [RNA Extraction] Following an 18 hour incubation, the PC3 cells were treated with 100 μg/mL cycloheximide for another 6 hours in order to freeze the ribosomal translation. Then total RNA was extracted from cells using “Universal RNA Extraction Kit” (Cat. Number 9767, Takara) according to the manufacturer's instructions. [cDNA Synthesis by One Step RT-PCR] 200 ng of RNA template was used for a 25 μL reverse transcription reaction using Super Script® One-Step RT-PCR kit with Platinum® Taq polymerase (Cat. Number 10928-042, Invitrogen) and a set of exon-specific primers [SCN-exon 2_forward: (5'→3') […] NO: 74), and SCN-exon 9_reverse: (5'→3') […] [Nested PCR Amplification] 1 μL of cDNA solution (diluted by 100×) was subjected to a 20 μl PCR amplification by nested PCR (Cat. Number K2612, Bioneer) against a set of exon-specific primers [SCN-exon 3n_forward: (5'→3') […] NO: 76); and SCN-exon 8_reverse: (5'→3') […] Thus “SCN-exon 3n_forward” recognizes “the junction of exon 3 and exon 5” more selectively than “the junction of exon 3 and exon 4” found in the full length SCN9A mRNA. The primer sequence was designed to detect SCN9A splice variants lacking exon 4 more sensitively than the full length SCN9A mRNA. Such an exon skipping primer would be useful to detect mRNA splice variants having poor metabolic stability, since the full-length mRNA tends to show good metabolic stability gained through the evolution over billions years. [Identification of Exon Skipping Products] The nested PCR products were subjected to electrophoretic separation on a 2% agarose gel. The bands of target size were collected and analyzed by Sanger sequencing. […] “SCN-ASO 27” was evaluated for its ability to induce the skipping of “exon 4” in PC3 cells as described in “SCN9A Example 1”, unless noted otherwise. [Cell Culture & ASO Treatment] PC3 cells grown in 60 mm culture dish containing 5 mL culture medium were treated with “SCN-ASO 27” at 0 (negative control), 1, 10 or 100 zM. [Nested PCR Amplification] […] NO: 89); and SCN-exon 9n_reverse: (5'→3') […] “SCN-ASO 27” was evaluated for its ability to induce the skipping of “exon 4” in PC3 cells as described in “SCN9A Example 8”, unless noted otherwise. In this experiment, PC3 cells were treated with “SCN-ASO 27” at 0 (negative control), 1, 10, 100 and 1,000 aM for 24 hours. [Nested PCR Amplification] The nested PCR reaction was carried out against a set of primers of [SCN-exon 3/6_forward: (5'→3') […] NO: 91); and SCN-exon 9n_reverse: (5'→3') […]

Another data set has as its system HIF-1α mRNA. Put plainly: HIF-1α nested qPCR by SYBR Green in HeLa cells. It is filed as cell-based, human. Conditions: 3 hours. Here is the method: “HIF-ASO 2” was evaluated by nested qPCR for its ability to inhibit the expression of the full-length HIF-1α mRNA in HeLa cells as follows. [Cell Culture & ASO Treatment] HeLa cells grown in 60 mm culture dish containing 5 mL medium were treated with “ASO 2” at 0 (negative control), 10, 100 or 1,000 zM (2 culture dishes per each ASO concentration). [RNA Extraction] 3 hours after the ASO treatment, total RNA was extracted with “MiniBEST Universal RNA Extraction Kit” (Cat. Number 9767, Takara) according to the manufacturer's instructions. [cDNA Synthesis by One Step RT-PCR] […] NO: 37); HIF-exon 8_reverse: (5'→3') […] [Nested qPCR] […] NO: 39); HIF-exon 2n_reverse (5'→3') […] NO: 40); HIF-exon 3n_forward (5'→3') […] NO: 41); HIF-exon 3n_reverse (5'→3') […] NO: 42); HIF-exon 4n_forward (5'→3') […] NO: 43); HIF-exon 4n_reverse (5'→3') […] NO: 44); HIF-exon 5n_forward (5'→3') […] NO: 45); HIF-exon 5n_reverse (5'→3') […] NO: 46). […] “HIF-ASO 6” was evaluated for its ability to induce a change in HIF-1α mRNA in HeLa cells by nested qPCR according to the procedures in “HIF-1α Example 4” unless noted otherwise. [cDNA Synthesis by One Step RT-PCR] […] NO: 50); HIF-exon 8(2) reverse: (5'→3') […] “HIF-ASO 12” was evaluated by HIF-1α nested qPCR for its ability to induce a change in the HIF-1a mRNA in HeLa cells as described in “HIF-1a Example 3”, unless noted otherwise. HeLa cells were treated with “HIF-ASO 12” for 6 hours, and then subjected to total RNA extraction.

{Fethoc} = N-terminal Fethoc cap; [C(1O2)] = modified PNA monomer acting as cytosine, C(pOq) type, 1O2; [A(5)] = modified PNA monomer acting as adenine, A(p) type, p=5; [A(6)] = modified PNA monomer acting as adenine, A(p) type, p=6; [G(5)] = modified PNA monomer acting as guanine, G(p) type, p=5; [G(6)] = modified PNA monomer acting as guanine, G(p) type, p=6; {NH2} = C-terminal amide

Take “Fethoc-AA(5)G-TG(5)T-A(5)CC(1O2)-TA(5)A-A(5)C-NH2 (AAGTGTACCTAAAC; splice-switching; all peptide nucleic acid (PNA), [A(5)] at 2, 7, 11, 13, [G(5)] at 5, [C(1O2)] at 9, 5' {Fethoc}, 3' {NH2}; peptide nucleic acid written N to C) [SCN-ASO 27]”: the “SCN9A exon skipping by nested PCR (exon 3/6 junction primer)” value with human SCN9A pre-mRNA (PC3 cells, 1, 10, 100 and 1,000 aM, 24 hours) is on record as “yielded a strong PCR band assignable to the skipping of exons 4-5”. In addition, the “SCN9A exon skipping by nested PCR” value with human SCN9A pre-mRNA (PC3 cells, 1, 10 or 100 zM) was “yielded a strong PCR band assignable to the skipping of exons 4-5”. Further, the “PCR band intensity for the full-length SCN9A mRNA” value in the data set on human SCN9A pre-mRNA (PC3 cells, 10 zM and 100 zM) is “stronger in treatment samples of 10 zM and 100 zM ASO than in the samples of the negative control”.
“Fethoc-AC(1O2)T-TA(5)C-G(6)CA-A(5)AA(5)-AC(1O2)A-A(5)-NH2 (ACTTACGCAAAAACAA; all peptide nucleic acid (PNA), [C(1O2)] at 2, 14, [A(5)] at 5, 10, 12, 16, [G(6)] at 7, 5' {Fethoc}, 3' {NH2}; peptide nucleic acid written N to C) [SCN-ASO 7]”: the “skipping of SCN9A exon 4 by nested PCR” value is reported as “conspicuously strong” with human SCN9A pre-mRNA (PC3 cells, 1 aM, 24 hours); “visible” with human SCN9A pre-mRNA (PC3 cells, 10 and 100 zM, 24 hours).
For “Fethoc-GA(5)A-C(1O2)TT-A(5)TC-CTA(5)-C(1O2)T-NH2 (GAACTTATCCTACT; splice-switching; all peptide nucleic acid (PNA), [A(5)] at 2, 7, 12, [C(1O2)] at 4, 13, 5' {Fethoc}, 3' {NH2}; peptide nucleic acid backbone) [HIF-ASO 2]”, the “decrease of individual HIF-1α exon levels (SYBR Green)” value in the data set with HIF-1α mRNA (HeLa cells, 1,000 zM (1 aM)) was “not different from the exon levels in the cells without ASO treatment”.
For the substance “Fethoc-A(6)GA-A(6)CT-TA(6)T-CC(1O2)T-A(6)CT-TA(6)-NH2 (AGAACTTATCCTACTTA; splice-switching; all peptide nucleic acid (PNA), [A(6)] at 1, 4, 8, 13, 17, [C(1O2)] at 11, 5' {Fethoc}, 3' {NH2}; peptide nucleic acid backbone) [HIF-ASO 6]”, the “decrease of individual HIF-1α exon levels (SYBR Green)” value is on record as 35% in the data set on HIF-1α mRNA (HeLa cells, 10 zM); ~30% with HIF-1α mRNA (HeLa cells, 100 zM); ~45% in the data set on HIF-1α mRNA (HeLa cells, 1,000 zM (1 aM)).
